Among the data in ChEMBL document CHEMBL3727343, “Agent for inhibiting odor of pyrazine derivatives” (2013) are inhibition values, retold here.

Activity calls are given as the source filed them. The calls are words filed in the database; no cut-off is given here. Some results are limits rather than exact numbers.

In experiment [1] the target is T1, Olfactory receptor 5K1 (Homo sapiens) (UniProt Q8NHB7).
T1 sequence (whole entry): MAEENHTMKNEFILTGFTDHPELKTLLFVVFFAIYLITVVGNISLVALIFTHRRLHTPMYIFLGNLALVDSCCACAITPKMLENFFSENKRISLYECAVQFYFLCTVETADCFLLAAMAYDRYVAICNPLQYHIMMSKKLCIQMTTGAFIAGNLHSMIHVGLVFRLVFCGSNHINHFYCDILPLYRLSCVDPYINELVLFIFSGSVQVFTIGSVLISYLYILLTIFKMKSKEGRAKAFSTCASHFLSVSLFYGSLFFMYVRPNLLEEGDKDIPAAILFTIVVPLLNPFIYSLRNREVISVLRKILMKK
The experiment is described as follows: Antagonist activity at human OR5K1 expressed in HEK293 cells assessed as inhibition of 2,6-dimethylpyrazine-induced response at 100 uM by luciferase reporter gene assay. Format: functional, cell-based. In general terms: Reporter assays use an easily measured gene product as a stand-in for the process of interest.

For another experiment, the species on record is Homo sapiens. The experiment is described as follows: Inhibition of 2,6-dimethylpyrazine-induced odor assessed as strength of odor on cloth smelled by subjects. Format: functional, organism-based.

What is called inhibition is the percentage by which the read-out fell short of the control. With `CCCCCC/C(C=O)=C\c1ccccc1`, in experiment [1], the inhibition was greater than 50%. Consider `CC1=CCC(C(C)CC2CCCC2=O)CC1` (configuration not stated), for which the inhibition in experiment [1] was greater than 50%. Regarding `CC(C)=CCCC(C)CC=O` (configuration not stated), the inhibition in experiment [1] was greater than 50%. Regarding `CC1=CCC(C/C=C(\C)CO)C1(C)C` (configuration not stated), the inhibition in experiment [1] is greater than 50%. Also, in the experiment filed under Homo sapiens, the inhibition entry was “Active”. As for `C[C@@H]1CCCCCCCCCCCCC(=O)C1`, the inhibition in experiment [1] was greater than 50%.

On to `Cc1ccc(C(C)C)c(O)c1`, for which, in experiment [1], the inhibition is greater than 75%.

Consider `CC(=O)/C(C)=C/C1C(C)=CCCC1(C)C` (configuration not stated), for which the inhibition in experiment [1] is greater than 50%. Further, in the experiment listed under Homo sapiens, the inhibition entry is “Active”. As for `CC(=O)c1c(C)c([N+](=O)[O-])c(C(C)(C)C)c([N+](=O)[O-])c1C`, the inhibition in experiment [1] is greater than 40%. Turning to `O=C/C=C/c1ccccc1`, the inhibition in experiment [1] is greater than 50%.

Turning to `CC1=CC(C)C(C)C(C=O)C1` (configuration not stated), in experiment [1], the inhibition is greater than 40%. Regarding `CC(=O)c1cc(C(C)(C)C)cc2c1CCC2(C)C`, in experiment [1], the inhibition was greater than 40%. As to `CCCCCCCC1CCC(=O)O1` (configuration not stated), in experiment [1], the inhibition is greater than 50%. In the experiment filed under Homo sapiens, the inhibition result is “Active”.

Take `CC/C=C(\C)C(O)CCCCC` (configuration not stated): the inhibition in experiment [1] was greater than 75%. Besides, in the experiment listed under Homo sapiens, the inhibition entry was “Active”. With `CC1=CC(C)C(C=O)CC1` (configuration not stated), in experiment [1], the inhibition is greater than 40%. Besides, the inhibition result in the experiment listed under Homo sapiens was “Active”. Take `O=C1CCCCC/C=C\CCCCCCCCO1`: the inhibition in experiment [1] is greater than 50%.

In the case of `CC(C=O)Cc1ccc2c(c1)OCO2` (configuration not stated), the inhibition in experiment [1] was greater than 40%. In addition, in the experiment listed under Homo sapiens, the inhibition result is “Active”. For `CC(C=O)Cc1ccc(C(C)C)cc1` (configuration not stated), the inhibition in experiment [1] was greater than 75%.

`CC/C(=C\CC1CC=C(C)C1(C)C)CO` (configuration not stated): the inhibition in experiment [1] is greater than 75%. `CC(=O)c1cc2c(cc1C)C(C)(C)C(C)CC2(C)C` (configuration not stated): in experiment [1], the inhibition is greater than 75%. Regarding `CCCCCCOC(=O)c1ccccc1O`, the inhibition in experiment [1] is greater than 40%. Consider `OCCCCCCc1ccccc1`, for which, in experiment [1], the inhibition is greater than 40%. Consider `CC(C)=CCCC(C)CCOCC=O` (configuration not stated), for which the inhibition in experiment [1] was greater than 40%. For `O=C1CCCCCCCCCCCCCCO1`, the inhibition in experiment [1] was greater than 40%.

Consider `CC(C)=CCC/C(C)=C/C=O`, for which the inhibition in experiment [1] was greater than 75%. On to `CCCCCC1=C(C)CCC1=O`, for which, in experiment [1], the inhibition is greater than 40%. As to `CCOCOC1CCCCCCCCCCC1`, the inhibition in experiment [1] is greater than 50%. Consider `O=C(OCCc1ccccc1)c1ccccc1O`, for which, in experiment [1], the inhibition was greater than 75%.

On to `C=CCc1ccc(O)c(OC)c1`, for which the inhibition in experiment [1] is greater than 40%. Turning to `CCCCC/C(C=O)=C\c1ccccc1`, the inhibition in experiment [1] was greater than 75%. In the case of `CC(C)[C@H]1CC[C@@H](CO)CC1`, the inhibition in experiment [1] is greater than 40%. For `C/C=C/C(=O)C1=C(C)C=CCC1(C)C`, the inhibition in experiment [1] is greater than 40%. Moreover, the inhibition entry in the experiment filed under Homo sapiens is “Active”.

In the case of `CC(=O)C1=C(C)[C@@H]2C[C@@]3(C1)[C@H](C)CC[C@H]3C2(C)C`, the inhibition in experiment [1] was greater than 50%. On the same count and under the same terms, the same measure for `CO[C@]1(C)CC[C@H]2C(C)(C)[C@@H]3C[C@@]21CC[C@H]3C`: greater than 50%; for `C[C@@H]1[C@@H]2C(=O)C[C@H]3[C@@H]2C(C)(C)CCC[C@]13C`: greater than 75%. On to `C=C(OCC)C1C(C)(C)CC(=O)CC1(C)C`, for which, in experiment [1], the inhibition is greater than 50%. In the case of `CC(C)CCCC(C)CCO` (configuration not stated), the inhibition in experiment [1] is greater than 50%. `C=CCCC(=O)C1=CCCC(C)(C)C1`: the inhibition in experiment [1] is greater than 40%. For the same compound, in the experiment filed under Homo sapiens, the inhibition result was “Active”.

Regarding `CC(=O)/C=C/C1=C(C)CCCC1(C)C`, in experiment [1], the inhibition was greater than 75%. The inhibition result in the experiment listed under Homo sapiens is “Active”.

As to `CC(C=O)C1CCCCC1` (configuration not stated), the inhibition in experiment [1] was greater than 50%. Turning to `CC(=O)O[C@]1(C)CC[C@H]2C(C)(C)[C@@H]3C[C@@]21CC[C@H]3C`, in experiment [1], the inhibition was greater than 50%. Regarding `CC(C=O)c1ccccc1` (configuration not stated), the inhibition in experiment [1] is greater than 50%. Regarding `CC(C)[C@@H]1CC[C@@H](C)C[C@H]1O`, in experiment [1], the inhibition is greater than 50%. On to `CC1=CC(O)CC(C)C2CC(=C(C)C)CC12` (configuration not stated), for which the inhibition in experiment [1] was greater than 75%.

In the case of `O=C1CCCCCCCCCCCC(=O)OCCO1`, in experiment [1], the inhibition was greater than 40%. Take `C/C=C/c1ccc(OCc2ccccc2)c(OC)c1`: the inhibition in experiment [1] was greater than 50%. Regarding `CC1(C)CCCC2(C)C1CCC1(C)OCCC12` (configuration not stated), the inhibition in experiment [1] is greater than 50%.

For `CC(C)=CCC/C(C)=C/CO`, the inhibition in experiment [1] was greater than 40%. Also, the inhibition result in the experiment listed under Homo sapiens was “Active”. In the case of `CC(C=O)Cc1ccc(C(C)(C)C)cc1` (configuration not stated), the inhibition in experiment [1] was greater than 50%. The inhibition entry in the experiment listed under Homo sapiens is “Active”.

With `CC1C/C=C/CCCCCCCCCC(=O)C1` (configuration not stated), the inhibition in experiment [1] is greater than 50%. For the same compound, in the experiment filed under Homo sapiens, the inhibition entry is “Active”. Regarding `CC12CCC(C3(CCCC3)C1=O)C2(C)C` (configuration not stated), in experiment [1], the inhibition was greater than 50%. As to `CCC(O)COC1CCCCC1C(C)(C)C` (configuration not stated), in experiment [1], the inhibition was greater than 75%. Also, the inhibition result in the experiment filed under Homo sapiens is “Active”. Regarding `CC(=O)C1(C)CC2=C(CCCC2(C)C)CC1C` (configuration not stated), the inhibition in experiment [1] is greater than 75%. Take `CC(=O)c1ccc2ccccc2c1`: the inhibition in experiment [1] was greater than 50%. In the experiment filed under Homo sapiens, the inhibition entry was “Active”.
